Laboratory results published in US9902725B2, “Heterocyclic derivatives as RORgamma modulators” (GENFIT, priority 2014, dated 2018).

Tests used:
MOG-induced EAE mice = assay: MOG-induced EAE in mice, clinical score; assay type: in vivo
Protocol: 8-10 week old, male C57BL/6 mice were purchased from Janvier Lab (St Berthevin, France) and housed in a specific pathogen free (SPF) animal facility for one week before the start of the studies. Peptide antigen MOG35-55 (Myelin Oligodendrocyte Glycoprotein) ([…], SEQ ID NO:1, Polypeptide group, France) was dissolved in PBS and emulsified with an equal volume of Complete Freund's Adjuvant (CFA) containing 5 mg/mL of mycobacteria and administrated by subcutaneous injection at the dorsal flanks on day 0 at 200 μg/mouse. To ensure induction of reliable EAE, 200 ng of Bordetella pertussis toxin (Sigma) was given via intraperitoneal injection at day 0 and 2 (Cua, Sherlock et al. 2003; Zhang, Gran et al. 2003). Animals were treated with drug beginning 2 days before peptide injection. Animals were randomized into groups for treatment by weight, so that the average weight of each group was similar. The groups were segregated by cage. Compounds according to the invention were suspended in Carboxymethyl Cellulose (CMC) 1% (Sigma) and Tween80 0.1% (Sigma) by sonication and animals were dosed daily by gavage with 10 mL/kg body weight. The daily dose of Cpd. 1 was 30 mg/kg and vidofludimus (reference compound) at 60 mg/kg in protocol 1 to assess IL-17 A and IL-17F secretion from splenocytes ex vivo. In protocol 2, mice were treated with Cpd. 1 at 3 and 10 mg/Kg or T4 compound at 1 and 10 mg/kg daily by gavage to assess the clinical score. Clinical assessment of EAE was performed daily according to the following criteria: 0) no disease, 1) limp tail, 2) weak/partially paralyzed hind legs, 3) completely paralyzed hind legs, 4) complete hind and partial front leg paralysis, and 5) complete paralysis/death. For Cytokine quantifications, mice were euthanized 20 days after EAE induction. Spleen-isolated cells were collected and adjusted to 2×10^6 cells/mL. Cells were cultured in complete RPMI medium (RPMI supplemented with 10% of fetal calf serum, 1% glutamine, and 1% penicillin/streptomycin). Spleen cells were stimulated with MOG (20 μg/mL) (Polypeptide group, France). Cytokine levels were evaluated 48 h later by ELISA (R&D Systems Europe) or HTRF (CisBio, France) in culture supernatants using IL-17A and IL-17-F according to the manufacturer's protocols. The statistical significance was based on Student's t test (p<0.05, unpaired test).

human RORγt = target: T1, human RORγt (Homo sapiens, UniProt P51449); assay: RORE luciferase/RORγt transactivation assay; assay type: cell-based; parameters: expressed in transfected cells; settings: COS-7 cells transfected with IL-17 promoter luciferase reporter and RORγt plasmid, 20 h
T1 sequence (P51449 1-497 isoform P51449-2): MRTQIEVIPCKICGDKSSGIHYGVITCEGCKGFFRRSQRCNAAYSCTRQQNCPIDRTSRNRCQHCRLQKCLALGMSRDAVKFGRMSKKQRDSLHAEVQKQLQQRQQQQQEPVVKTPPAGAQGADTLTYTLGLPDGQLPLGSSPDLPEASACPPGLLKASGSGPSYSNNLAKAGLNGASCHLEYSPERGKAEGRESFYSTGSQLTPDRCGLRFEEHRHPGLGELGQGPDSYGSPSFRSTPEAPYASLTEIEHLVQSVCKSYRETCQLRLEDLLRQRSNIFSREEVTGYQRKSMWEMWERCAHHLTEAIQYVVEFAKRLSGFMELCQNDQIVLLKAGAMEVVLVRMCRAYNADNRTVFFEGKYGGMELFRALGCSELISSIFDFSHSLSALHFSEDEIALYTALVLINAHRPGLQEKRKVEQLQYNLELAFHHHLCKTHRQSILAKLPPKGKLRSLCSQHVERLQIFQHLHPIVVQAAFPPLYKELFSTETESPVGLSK
Description: It is well known that RORγ binds to a conserved non-coding sequence (CNS) enhancer element in the IL-17 promoter. Accordingly, we have used in this assay a luciferase reporter gene construct that contains the human IL-17 promoter fragment with RORγ-specific CNS enhancer element and a RORγt overexpressing plasmid, to indirectly assess the effect of compounds on RORγ activity. Inhibition of RORγ activity by test compounds will result in a decrease in luciferase activity in COS-7 cells transfected with the reporter construct.
Monkey Kidney COS-7 cell line are maintained in a standard culture medium Dulbecco's modified Eagle's minimal (DMEM) medium supplemented with 10% fetal calf serum, 1% sodium pyruvate, 1% essential amino acids and 1% antibiotics at 37° C. in a humidified atmosphere of 5% CO2 and 95% air. Culture medium was changed every 2 days.
The 4.3 Kb human IL-17 promoter containing the RORγ-specific CNS enhancer element was PCR amplified from human genomic DNA and cloned into a pGL3-TKLuc2Cp reporter plasmid. To overexpress RORγt, the full-length cDNA of human RORγt (identical to published sequence NM 001001523) was cloned without any restriction into pcdna3.1DV5-His-topo to generate the RORγt overexpression plasmid “RORγt_FL_h_pcDNA3.1DV5-His-TOPO_1”.
The luciferase reporter plasmid and the RORγt overexpression plasmid were transfected into COS-7 cell line using 4 μLJetPEITM/μg of DNA. Briefly, 150 ng of DNA (ration ½ between RORE-Tk Luc2Cp and cDNA RORγt or the empty vector for the negative control) was served to transfect adherent COS-7 cells in a […] culture flask, in complete medium (see cos-7 cell line culture). Cells were incubated for 24 hours in a humidified atmosphere of 5% CO2 and 95% air
Cells were then detached (using trypsin) and washed by centrifugation at 300 g for 10 minutes. Cell pellet was resuspended in serum free/phenol red free DMEM and seeded in 384 well plates at a density of 10000 cells/well and then incubated for 4 h at 37° C.
Compounds were dissolved in 100% DMSO to obtain 10 mM stock solutions. For each compound, test concentrations were diluted in serum free/phenol red free DMEM using the Genesis Freedom 200™ (TECAN) and added to the cells to obtain a 0.3% DMSO final concentration (in a final volume of 40 μL per well). T091317 was used as reference compound. Cells were incubated in presence of compounds for an additional 20 h at 37° C. in a humidified atmosphere of 5% CO2 and 95% air
The luciferase activity was then measured with 40 μL/well steady-Glo Luciferase assay system (Promega, Madison, Wis.) and after incubation at room temperature for 30 minutes. The luminescence was estimated using the Ultra384 reader (TECAN). Data were collected and analyzed using GraphPad Prism software (GraphPad Software V5.02, San Diego Calif. USA). IC50 in μM and Emax in % were reported for each compound.

IC50 (human RORγt) [µM] | SMILES | onset of EAE (MOG-induced EAE mice; administered p/os (orally) for 20 days) | EAE clinical score (MOG-induced EAE mice; daily by gavage, Cpd. 1 at 3 and 10 mg/Kg, T4 compound at 1 and 10 mg/kg)
< 1 | O=C(O)CCc1c[nH]c2ccc(CC(=O)NC(c3ccccc3)c3ccccc3N3CCCCC3)cc12 (stereo not drawn) [Cpd. 1, 3-{5-[({phenyl[2-(piperidin-1-yl)phenyl]methyl}carbamoyl)methyl]-1H-indol-3-yl}propanoic acid] | able to delay the onset of EAE | improvement was apparent
< 1 | O=C(O)CCc1c[nH]c2ccc(CC(=O)NC(c3cccc(F)c3)c3ccccc3N3CCCCC3)cc12 (stereo not drawn) [Cpd. 3, 3-[5-({[(3-fluorophenyl)[2-(piperidin-1-yl)phenyl]methyl]carbamoyl}methyl)-1H-indol-3-yl]propanoic acid] |  | 
< 1 | Cc1ccc(C(NC(=O)Cc2ccc3[nH]cc(CCC(=O)O)c3c2)c2ccccc2)c(N2CCCC2)c1 (stereo not drawn) [Cpd. 5, 3-{5-[({[4-methyl-2-(pyrrolidin-1-yl)phenyl](phenyl)methyl}carbamoyl)methyl]-1H-indol-3-yl}propanoic acid] |  | 
< 1 | CC(C)CC(NC(=O)Cc1ccc2[nH]cc(CCC(=O)O)c2c1)c1ccccc1N1CCCCC1 (stereo not drawn) [Cpd. 29, 3-{5-[({3-methyl-1-[2-(piperidin-1-yl)phenyl]butyl}carbamoyl)methyl]-1H-indol-3-yl}propanoic acid] |  | 
